Experimental data from patent publication US4782072A, “Thiadiazole derivative” (Reckitt & Colman Products Limited, priority 1986, dated 1988).

How the values were obtained:
[1] = electroshock test (MES), rat; type: in vivo; conditions: read-out: ED50 (limits) RAT MES
Procedure: (§1) The pharmacological activity of the compound of the invention has been determined according to the following procedures. Its anticonvulsant activity was determined in the metrazol antagonism test in both mice and rats (MMS) (Soaje-Echaque E; Lim RKS, J Pharmac Exp Ther 1962, 138, 224; Desmedt LKC; Niemegeers CJE; Lewi PJ; Janssen PAJ, Arzneim-Forsch (Drug Res), 1976, 26, 1592) and the electroshock test (MES) (Perry JK; Tower DB; Woodbury DM; Walter RD, "Experimental Models of Epilepsy", editor Purpura DP; Raven Press: New York, 1972, 434).

[2] = metrazol antagonism test (MMS), rat; type: in vivo; conditions: read-out: ED50 (limits) RAT MMS
Procedure: as §1

[3] = electroshock test (MES), mouse; type: in vivo
Procedure: as §1

[4] = metrazol antagonism test (MMS), mouse; type: in vivo; conditions: read-out: ED50 (limits) MOUSE MMS
Procedure: as §1

in vivo = conditions: for TD50 ip at time of peak effect / TD50 po at 1 hour: rotarod; for TD50 ip at time of peak effect: at time of peak anticonvulsant effect; for TD50 po at 1 hour: dose at which 50% of trained animals fall off the rotarod
Procedure: An assessment of the neurotoxicity of the compound was carried out in mice using the rotarod test (Collier, HOJ; Fieller, EC; Hall, RA, Analyst, 1949, 74, 592).
^a Dose at which 50% of trained animals fall off the rotarod.
^b Protective index is calculated by dividing the TD50 (ip at
time of peak anticonvulsant effect) by the ED50 under the same

[5] = anticonvulsant tests (MES and MMS), rat and mouse, summary; type: in vivo; conditions: for anticonvulsant activity: electrically and chemically induced seizures
Procedure: as §1

[6] = ip, mouse, MES, i.p., at time of peak effect, read-out: ED50 (limits) MES at time of peak effect
[7] = mouse, MES, oral, t=1 hour, read-out: ED50 (limits) MOUSE MES
[8] = mouse, in vivo, ip, protective index (PI)

Row | Compound | ED50 ([1]; rat, MES, oral, t=1 hour) | ED50 ([2]; rat, MMS, oral, t=1 hour) | ED50 [3, 6] | Time of peak effect ([3]; mouse, MES, i.p.) | ED50 [3, 7] | ED50 ([4]; mouse, MMS, oral, t=1 hour) | selectivity ratio (in vivo; [8]) | TD50 ip at time of peak effect (in vivo; ip) | TD50 po at 1 hour (in vivo) | other results
1 | NCc1nnc(-c2ccccc2-c2ccccc2)s1 [Example, 2-Aminomethyl-5-(2-biphenylyl)-1,3,4-thiadiazole] | 10 mg/kg | 9 mg/kg | 7 mg/kg | 10 min | 22 mg/kg | 20 mg/kg | 6.5 | 45(23-68) mg/kg | 318(230-471) mg/kg | rate of absorption ([5]; inferred from time of peak effect, ip and oral, in words): very rapid rate of absorption; time of peak effect by both methods of administration ([5]; intraperitoneal and oral routes, after dosing): ten and twenty; anticonvulsant activity ([5]; rat and mouse, in words, listed as compound of Formula 1): potent anticonvulsant activity; anticonvulsant activity ([5]; rat and mouse, in words, listed as the compound): potent anticonvulsant, blocking both electrically and chemically induced seizures; effectiveness by intraperitoneal and oral routes ([5]; rat and mouse, in words): effective by both the intraperitoneal and oral routes; potency relative to established anticonvulsant drugs ([5]; rat and mouse, in words): comparable with established anticonvulsant drugs
2 | NC(=O)N1c2ccccc2C=Cc2ccccc21 [carbamazepine] | 4 mg/kg | 3 mg/kg | 6 mg/kg | 20 min | 20 mg/kg | 11 mg/kg | 11 | 67(29-108) mg/kg | 166(104-282) mg/kg | protective index (PI) (in vivo; in vivo, ip): 11.1
3 | CCC1(c2ccccc2)C(=O)NC(=O)NC1=O [phenobarbital] | – | – | – | 30 min | – | – | – | 86(54-140) mg/kg | 68(52-92) mg/kg | ED50 ([1]; Rattus norvegicus, po, 1 h): 9 mg/kg; ED50 ([2]; Rattus norvegicus, po, 1 h): 4 mg/kg; ED50 ([3]; Mus musculus, ip, read-out: ED50 (limits) MES at time of peak effect): 18 mg/kg; ED50 ([3]; Mus musculus, po, 1 h, read-out: ED50 (limits) MOUSE MES): 12 mg/kg; ED50 ([4]; Mus musculus, po, 1 h): 4 mg/kg
4 | O=C1NC(=O)C(c2ccccc2)(c2ccccc2)N1 [phenytoin] | 14 mg/kg | 12 mg/kg | 8 mg/kg | 60 min | 8 mg/kg | 8 mg/kg | – | 56(27-74) mg/kg | 216(154-239) mg/kg | selectivity ratio (in vivo; in vivo, ip): 7
